Among the targets are Cytochrome P450 2D6 (Homo sapiens, UniProt P10635); Cytochrome P450 3A4 (Homo sapiens, UniProt P08684); Cytochrome P450 2C9 (Homo sapiens, UniProt P11712).
In series [1] the target is DNA dC->dU-editing enzyme APOBEC-3A (Homo sapiens, UniProt P31941). In words: Dose Response confirmation of small molecule APOBEC3A DNA Deaminase Inhibitors via a fluorescence-based single-stranded DNA deaminase assay. [Related pubchem assays (depositor defined):AID493011, AID493024]. The class given is functional.
For series [2], the target named is DNA dC->dU-editing enzyme APOBEC-3G (Homo sapiens, UniProt Q9HC16). The class given is functional.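 Also: Dose-response counterscreen measuring inhibition of APOBEC3G DNA deaminase activity, run while confirming APOBEC3A inhibitors.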
For series [3], the target named is T1, Acyl-homoserine lactone acylase PvdQ (Pseudomonas aeruginosa (strain LESB58), UniProt Q9I194).
T1 sequence (Q9I194 whole entry): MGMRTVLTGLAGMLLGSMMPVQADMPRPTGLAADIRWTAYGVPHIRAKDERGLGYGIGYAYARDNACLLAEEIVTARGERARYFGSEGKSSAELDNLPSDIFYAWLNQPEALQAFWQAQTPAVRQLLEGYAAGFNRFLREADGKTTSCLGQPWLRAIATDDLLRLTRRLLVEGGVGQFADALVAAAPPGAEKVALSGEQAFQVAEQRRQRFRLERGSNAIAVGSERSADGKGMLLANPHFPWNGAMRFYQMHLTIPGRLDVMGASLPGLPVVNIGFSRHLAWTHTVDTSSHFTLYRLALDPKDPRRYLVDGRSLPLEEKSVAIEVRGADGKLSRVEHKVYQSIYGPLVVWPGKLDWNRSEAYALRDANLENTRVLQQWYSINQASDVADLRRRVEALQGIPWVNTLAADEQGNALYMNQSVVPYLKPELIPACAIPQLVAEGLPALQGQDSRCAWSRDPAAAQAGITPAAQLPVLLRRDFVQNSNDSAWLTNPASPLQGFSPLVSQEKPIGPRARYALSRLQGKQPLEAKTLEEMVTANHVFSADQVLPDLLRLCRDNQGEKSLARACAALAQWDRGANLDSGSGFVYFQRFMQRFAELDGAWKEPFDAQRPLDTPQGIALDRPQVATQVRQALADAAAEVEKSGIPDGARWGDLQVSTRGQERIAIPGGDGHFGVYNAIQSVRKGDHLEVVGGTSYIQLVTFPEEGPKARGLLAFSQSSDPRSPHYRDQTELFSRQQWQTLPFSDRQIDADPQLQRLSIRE
In words: P. aeruginosa PvdQ acylase inhibitors, dose response, biochemical, fluorescence, plate reader and imaging, cherry-picks (AID 493231).

The target of series [4] is T2, Neuropeptide Y receptor type 1 (Homo sapiens, UniProt P25929).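 Also: HEK293 cells with a CNG channel challenged with NPY then isoproterenol; potency as antagonist that reverses NPY suppression of cAMP signal.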
T2 sequence (P25929 whole entry): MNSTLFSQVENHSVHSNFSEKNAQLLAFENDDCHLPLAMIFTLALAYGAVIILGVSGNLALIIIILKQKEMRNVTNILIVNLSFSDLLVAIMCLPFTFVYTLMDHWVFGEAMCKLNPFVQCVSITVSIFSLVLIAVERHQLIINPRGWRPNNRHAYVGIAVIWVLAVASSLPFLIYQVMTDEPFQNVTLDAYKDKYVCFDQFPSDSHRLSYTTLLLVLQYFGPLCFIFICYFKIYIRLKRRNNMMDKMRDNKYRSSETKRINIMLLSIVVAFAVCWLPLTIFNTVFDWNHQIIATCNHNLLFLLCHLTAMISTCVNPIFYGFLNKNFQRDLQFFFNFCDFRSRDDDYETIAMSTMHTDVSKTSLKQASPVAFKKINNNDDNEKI
The class given is functional.

Series [5] has as its target T3, Neuropeptide Y receptor type 2 (Homo sapiens, UniProt P49146).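 Also: HEK293 cells expressing the receptor and a CNG channel; stimulus was NPY near EC95 followed by isoproterenol to raise cAMP; antagonist potency measured as restoring cAMP signal that NPY suppresses.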
T3 sequence (P49146 whole entry): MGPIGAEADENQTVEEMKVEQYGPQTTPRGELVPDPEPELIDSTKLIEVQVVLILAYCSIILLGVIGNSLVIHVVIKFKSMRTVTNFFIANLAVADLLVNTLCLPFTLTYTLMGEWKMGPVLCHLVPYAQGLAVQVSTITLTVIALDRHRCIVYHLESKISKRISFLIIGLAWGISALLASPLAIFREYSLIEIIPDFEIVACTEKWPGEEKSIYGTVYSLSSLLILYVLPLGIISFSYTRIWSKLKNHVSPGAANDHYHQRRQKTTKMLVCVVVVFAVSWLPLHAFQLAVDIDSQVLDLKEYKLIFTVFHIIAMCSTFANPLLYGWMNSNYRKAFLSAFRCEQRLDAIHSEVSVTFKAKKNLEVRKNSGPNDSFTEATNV
It counts as functional, cell-based.

The target in the next series is Cytochrome P450 2C19 (Homo sapiens, UniProt P33261). In words: Cytochrome panel assay with activity outcomes. Panel member name: p450-cyp2c19 Compounds with AC50 equal or less than 10 uM are considered active. The class given is functional. Conditions: read-out: AC50.
A short description of series [6]: THP-1 cell cytotoxicity, dose response, cytotoxicity control for non-replicating M. tuberculosis project (AID 489025). The class given is functional.
A further series in a line: cells. It counts as functional.
Series [7] can be described thus: Luminescence Cell-Based Dose Retest to Confirm Inhibitors of Cancer Stem Cells. [Related pubchem assays (depositor defined):AID2717, AID2721]. It counts as functional. Particulars: Homo sapiens.
The nature of series [8]: Luminescence Cell-Based Dose Confirmation HTS to Identify Activators of 5'UTR Stem-Loop Driven Alpha-Synuclein mRNA Translation in H4 Neuroglioblastoma Cells. [Related pubchem assays: 1829 (Project Summary), 1814 (Primary HTS)]. The class given is functional.
Series [9] in a line: Luminescence Cell-Based Dose Response HTS to Identify Activators of Luciferase Translation or Activity in H4 […] Cells. [Related pubchem assays: 1829 (Project Summary), 1814 (Primary HTS)]. It counts as functional.
The test system of another series is H4. Nature of the series: Luminescence Cell-Based Dose Response HTS to Identify Activators of 5'UTR Stem-Loop Driven Prion Protein mRNA Translation in H4 Neuroglioblastoma Cells. [Related pubchem assays: 1829 (Project Summary), 1814 (Primary HTS)]. It counts as functional. Conditions: Homo sapiens.
In a further series the target is T4, Cytochrome P450 1A2 (Homo sapiens, UniProt P05177).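 Also: PubChem cytochrome P450 panel assay, CYP1A2 panel member.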
T4 sequence (P05177 whole entry): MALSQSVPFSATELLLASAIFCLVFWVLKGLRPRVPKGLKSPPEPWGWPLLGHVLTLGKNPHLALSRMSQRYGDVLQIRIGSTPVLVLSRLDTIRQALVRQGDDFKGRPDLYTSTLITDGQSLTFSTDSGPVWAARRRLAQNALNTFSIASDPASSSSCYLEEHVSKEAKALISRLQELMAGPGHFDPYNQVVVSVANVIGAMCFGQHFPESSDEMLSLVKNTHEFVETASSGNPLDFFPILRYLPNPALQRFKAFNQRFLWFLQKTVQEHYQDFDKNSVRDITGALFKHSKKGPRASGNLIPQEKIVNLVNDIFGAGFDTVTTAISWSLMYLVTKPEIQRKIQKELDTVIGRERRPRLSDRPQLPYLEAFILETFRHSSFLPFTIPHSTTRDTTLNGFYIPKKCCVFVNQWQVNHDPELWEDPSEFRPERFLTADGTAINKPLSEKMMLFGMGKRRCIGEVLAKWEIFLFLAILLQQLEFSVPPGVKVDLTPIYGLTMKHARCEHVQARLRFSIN

A short description of series [10]: A cytotoxicity screen of small molecule inhibitors of the PhoP region in Salmonella typhi identified in the primary screen. [Related pubchem assays: 1850, 1864, 1985 ]. The class given is functional.

The source made the active and inactive calls.

DNA dC->dU-editing enzyme APOBEC-3A, sequence (P31941 whole entry): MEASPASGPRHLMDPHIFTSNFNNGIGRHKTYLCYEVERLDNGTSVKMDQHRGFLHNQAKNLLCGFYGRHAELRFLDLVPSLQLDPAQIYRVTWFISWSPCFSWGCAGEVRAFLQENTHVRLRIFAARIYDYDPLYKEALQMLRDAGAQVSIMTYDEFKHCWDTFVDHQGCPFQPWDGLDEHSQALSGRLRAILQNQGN
DNA dC->dU-editing enzyme APOBEC-3G, sequence (Q9HC16 whole entry): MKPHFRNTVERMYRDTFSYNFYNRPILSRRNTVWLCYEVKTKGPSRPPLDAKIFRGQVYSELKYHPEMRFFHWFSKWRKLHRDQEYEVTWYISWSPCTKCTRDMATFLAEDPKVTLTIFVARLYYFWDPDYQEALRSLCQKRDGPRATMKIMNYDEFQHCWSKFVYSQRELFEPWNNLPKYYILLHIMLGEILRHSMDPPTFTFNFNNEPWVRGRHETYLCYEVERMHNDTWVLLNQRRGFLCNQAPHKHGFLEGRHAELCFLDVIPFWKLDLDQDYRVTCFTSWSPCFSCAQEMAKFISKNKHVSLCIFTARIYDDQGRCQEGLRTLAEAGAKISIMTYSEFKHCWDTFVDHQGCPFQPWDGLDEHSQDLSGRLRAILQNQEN
Cytochrome P450 3A4, sequence (P08684 whole entry): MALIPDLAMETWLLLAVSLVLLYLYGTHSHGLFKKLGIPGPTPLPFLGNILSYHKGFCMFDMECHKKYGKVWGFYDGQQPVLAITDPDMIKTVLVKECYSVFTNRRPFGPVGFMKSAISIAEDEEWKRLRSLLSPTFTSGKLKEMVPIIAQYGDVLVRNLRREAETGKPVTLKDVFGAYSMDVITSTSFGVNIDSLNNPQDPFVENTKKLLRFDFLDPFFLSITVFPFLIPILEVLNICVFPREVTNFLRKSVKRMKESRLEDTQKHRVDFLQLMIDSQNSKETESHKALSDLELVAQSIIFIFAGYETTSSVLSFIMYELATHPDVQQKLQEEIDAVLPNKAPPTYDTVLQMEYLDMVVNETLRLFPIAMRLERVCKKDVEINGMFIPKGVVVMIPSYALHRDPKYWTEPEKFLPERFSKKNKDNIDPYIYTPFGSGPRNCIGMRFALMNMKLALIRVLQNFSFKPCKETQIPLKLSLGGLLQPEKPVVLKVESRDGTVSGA
Cytochrome P450 2C9, sequence (P11712 whole entry): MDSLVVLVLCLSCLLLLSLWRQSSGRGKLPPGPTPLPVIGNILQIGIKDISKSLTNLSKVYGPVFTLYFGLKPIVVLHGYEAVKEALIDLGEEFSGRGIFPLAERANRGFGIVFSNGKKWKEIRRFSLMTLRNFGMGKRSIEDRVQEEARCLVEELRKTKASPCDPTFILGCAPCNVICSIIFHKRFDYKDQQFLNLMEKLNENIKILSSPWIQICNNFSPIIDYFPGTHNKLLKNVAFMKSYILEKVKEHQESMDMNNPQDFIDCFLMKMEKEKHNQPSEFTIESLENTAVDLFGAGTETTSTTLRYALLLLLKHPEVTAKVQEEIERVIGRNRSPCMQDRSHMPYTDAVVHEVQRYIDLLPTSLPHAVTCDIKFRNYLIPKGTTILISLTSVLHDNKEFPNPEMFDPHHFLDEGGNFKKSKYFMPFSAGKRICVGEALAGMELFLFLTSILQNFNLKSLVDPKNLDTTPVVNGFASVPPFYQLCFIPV
Cytochrome P450 2C19, sequence (P33261 whole entry): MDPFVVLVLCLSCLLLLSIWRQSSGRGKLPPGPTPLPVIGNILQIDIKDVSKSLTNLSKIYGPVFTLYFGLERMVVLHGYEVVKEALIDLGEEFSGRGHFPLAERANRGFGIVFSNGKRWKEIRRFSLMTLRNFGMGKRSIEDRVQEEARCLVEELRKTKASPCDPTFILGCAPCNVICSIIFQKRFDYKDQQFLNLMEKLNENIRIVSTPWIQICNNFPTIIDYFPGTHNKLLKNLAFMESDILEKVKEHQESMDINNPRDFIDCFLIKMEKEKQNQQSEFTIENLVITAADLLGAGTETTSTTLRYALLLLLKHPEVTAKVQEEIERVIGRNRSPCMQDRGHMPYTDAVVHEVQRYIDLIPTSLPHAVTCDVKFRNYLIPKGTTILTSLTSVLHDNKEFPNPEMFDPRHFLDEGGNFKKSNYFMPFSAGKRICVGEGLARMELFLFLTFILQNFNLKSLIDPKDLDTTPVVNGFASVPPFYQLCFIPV
Cytochrome P450 2D6, sequence (P10635 whole entry): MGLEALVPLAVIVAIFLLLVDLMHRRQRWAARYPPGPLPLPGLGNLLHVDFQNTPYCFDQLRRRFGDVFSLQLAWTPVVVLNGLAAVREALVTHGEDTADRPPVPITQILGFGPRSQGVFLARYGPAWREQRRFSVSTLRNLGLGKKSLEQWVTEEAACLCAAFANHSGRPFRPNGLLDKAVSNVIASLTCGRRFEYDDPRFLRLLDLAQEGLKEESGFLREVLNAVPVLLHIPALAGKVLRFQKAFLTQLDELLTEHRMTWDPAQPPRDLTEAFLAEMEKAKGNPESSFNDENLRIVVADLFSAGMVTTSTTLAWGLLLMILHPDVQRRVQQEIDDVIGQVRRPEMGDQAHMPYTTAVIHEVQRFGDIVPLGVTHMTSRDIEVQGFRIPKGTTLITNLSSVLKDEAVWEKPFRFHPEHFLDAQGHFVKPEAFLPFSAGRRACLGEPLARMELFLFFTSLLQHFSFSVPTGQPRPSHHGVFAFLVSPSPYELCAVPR

Usually IC50 stands for the concentration at which inhibition is half-maximal. As to `Cc1ccc2c(c1)C1CN(C)CCC1N2CC(=O)N(C)c1ccccc1` (stereo not given), the IC50 in series [1] is 5.51 µM (active); in series [2] it was 9.94 µM (active).
What is called AC50 is the midpoint of the concentration-response curve, whichever way the signal moves. Consider `CSC1=NC(=O)/C(=C/c2ccc(SC)cc2)S1`, for which the AC50 in [3] was 16.2 µM (active).
Take `O=C(CSCc1c(Cl)cccc1Cl)Nc1ccccc1-c1ccccc1`: the IC50 was 5.69 µM (active) in series [4] and 6.07 µM (active) in series [5].
For `CCOC(=O)N1CCN(C(=O)c2oc3ccc(S(=O)(=O)N4CCCCC4)cc3c2C)CC1`, the figures for the AC50 on Cytochrome P450 2C19, at Cytochrome P450 2D6 and at Cytochrome P450 3A4 were 28.2 µM (inconclusive), 20 µM (inconclusive) and “inconclusive”, respectively.
`COc1ccccc1N=Nc1[nH]c2ccc(C)cc2c1O`: the concentration for half-maximal inhibition (IC50) in [1] was 6.59 µM (active); in series [2], 6.6 µM (active).
Consider `CCOc1ccc2nc(NC(=O)CS(=O)(=O)c3ccc(C)cc3)sc2c1`, for which the half-inhibitory concentration (IC50) was > 12 µM (not active) in series [4] and > 35 µM (not active) in [5].
Regarding `O=S(=O)(c1ccccc1)N1CCC2(CC1)CN(C(c1ccccc1)c1ccccc1)C2`, the half-maximal activity concentration (AC50) entry at Cytochrome P450 3A4 was “inconclusive”.
With `CCN1CCN(c2ccc(S(=O)(=O)N3CCCCC3)cc2NC(=O)/C=C/c2ccc(OC(F)F)cc2)CC1`, the half-maximal inhibitory concentration (IC50) in series [1] is 4.28 µM (active); in series [2] it was 7.32 µM (active).
Broadly, the CC50 is the concentration giving 50% cytotoxicity. In the case of `O=C(Nc1ccccc1)c1cc2ccccc2o1`, in series [6], the CC50 is > 40 µM (active). In the series “cells”, the concentration for half-maximal inhibition (IC50) was 6.22 µM (active).
Take `Cc1ccc(OCCCCN(C)Cc2ccccc2)c(Br)c1`: the IC50 is 8.33 µM (active) in [4] and 12 µM (not active) in series [5]. For the same compound, the AC50 in [7] was 9.59 µM (active).
As a reminder, the EC50 is the concentration giving half of the maximal effect. As for `CN1C2CCC1/C(=C\c1ccccc1)C(=O)/C2=C\c1ccccc1`, the EC50 in [8] is 6.92 µM (active); in series [9], > 120 µM (not active); in the series on H4, > 120 µM (not active). In addition, the half-maximal activity concentration (AC50) in series [7] was 4.4 µM (active); at Cytochrome P450 2C19, 10 µM (inconclusive); at Cytochrome P450 1A2 it was 39.8 µM (inconclusive); on Cytochrome P450 3A4, “inconclusive”; on Cytochrome P450 2C9 it was “inconclusive”.
`Clc1ccc(C2=Nn3c(nnc3-c3[nH]nc4c3CCC4)SC2)cc1Cl`: the concentration for half-maximal inhibition (IC50) is 9.8 µM (active) in [4] and 8.69 µM (active) in [5].
For `O=C(NC1CCCC1)c1cc(Cl)ccc1[N+](=O)[O-]`, the AC50 in series [3] was 0.948 µM (active).
In the case of `COc1c(Br)cc2c(C)c(C(=O)N3CCOCC3)oc2c1Br`, in series [10], the EC50 is > 50 µM (active).
On to `N#CC1C(C#N)C2CCC1C1C2N1c1ccccc1` (stereo not given), for which, in series [3], the AC50 was 7.8 µM (active).
As to `OCCNC1=NCCN1`, the IC50 was 2.2 µM (active) in [1] and 1.95 µM (active) in series [2].
For `Cc1ccc(/C=N/NC(=O)CSc2nc3ccccc3n2C)s1`, in series [10], the half-maximal effective concentration (EC50) was > 50 µM (active). On Cytochrome P450 2C9, the half-maximal activity concentration (AC50) result is given as “inconclusive”.
With `N=C(N)SCCc1ccc(CCSC(=N)N)cc1`, the AC50 on Cytochrome P450 2D6 was 31.6 µM (inconclusive); at Cytochrome P450 3A4 it was “inconclusive”.
For the compound `COc1ccc2nc(NC(=O)Nc3ccccc3)sc2c1` [FRENTIZOLE], the EC50 in [10] was > 50 µM (active).

Values taken from ChEMBL document CHEMBL1201862, “PubChem BioAssay data set” (2004).
